Test results: US20140135357A1, “DOSE REGIME FOR CAMPTOTHECIN DERIVATIVES” (Taiwan Liposome Company, Ltd., priority 2012, published 2014)

Assay: Phase I clinical trial: pharmacokinetic analysis of TLC388HCl diastereomers and metabolites after IV infusion
Details: for difference between PK profiles on Day 1 and Day 8: Cycle 1; for half-life: plasma, after IV administration of TLC388HCl composition
[1] = Day 1, dose group 1.5 mg/m^2 TLC388HCl, Mean (SD)
[2] = Day 1, dose group 3.0 mg/m^2 TLC388HCl, Mean (SD)
[3] = Day 1, dose group 6.0 mg/m^2 TLC388HCl, Mean (SD)
[4] = Day 1, dose group 9.0 mg/m^2 TLC388HCl, Mean (SD)
[5] = Day 1, dose group 20.0 mg/m^2 TLC388HCl, Mean (SD)
[6] = Day 1, dose group 30.0 mg/m^2 TLC388HCl, Mean (SD)
[7] = Day 1, dose group 35.0 mg/m^2 TLC388HCl, Mean (SD)
[8] = Day 1, dose group 40.0 mg/m^2 TLC388HCl, Mean (SD)
[9] = Day 1, dose group 50.0 mg/m^2 TLC388HCl, Mean (SD)
[10] = Day 1, dose group 60.0 mg/m^2 TLC388HCl, Mean (SD)
[11] = Day 8, dose group 1.5 mg/m^2 TLC388HCl, Mean (SD)
[12] = Day 8, dose group 3.0 mg/m^2 TLC388HCl, Mean (SD)
[13] = Day 8, dose group 6.0 mg/m^2 TLC388HCl, Mean (SD)
[14] = Day 8, dose group 9.0 mg/m^2 TLC388HCl, Mean (SD)
[15] = Day 8, dose group 20.0 mg/m^2 TLC388HCl, Mean (SD)
[16] = Day 8, dose group 30.0 mg/m^2 TLC388HCl, Mean (SD)
[17] = Day 8, dose group 35.0 mg/m^2 TLC388HCl, Mean (SD)
[18] = Day 8, dose group 40.0 mg/m^2 TLC388HCl, Mean (SD)
[19] = Day 8, dose group 50.0 mg/m^2 TLC388HCl, Mean (SD)
[20] = Day 8, dose group 60.0 mg/m^2 TLC388HCl, Mean (SD)
[21] = patients treated with 60 mg/m^2 of TLC388HCl (N = 6)

Method: A non-randomized phase I clinical trial was conducted at 4 institutions in the US and Taiwan.
Patients were included in this trial if they are over the age of 18, with advanced cancer and the ECOG performance status is 0 or 1. […] Patients were excluded from the study if they have previously received more than 3 regimens of chemotherapy, or if they have received chemotherapy or radiotherapy within 4 weeks of the trial recruitment.
Eligible patients were given the pharmaceutical composition of the present invention, comprising a mixture of TLC388HCl and mPEG2000-DSPE in a molar ratio of 1:0.7 to 1:0.9 (known as Lipotecan®). […] The pharmaceutical composition was administered as a 30-min IV infusion, on days 1, 8, and 15 of a 28-day cycle (i.e. 3 IV infusions per 28-day cycle).
Serum samples were collected from the patients for pharmacokinetic analysis on day 1, day 8 and day 15 of Cycles 1 and 2, at the following times:
Post IV infusion: (Day 1 and 8 of Cycle 1): 33 min; 40 min; 50 min; 1 h; 1 h 30 min; 2 h; 4 h and 8 h. Post IV infusion (Day 15 of Cycle 1 and Day 1, 8, and 15 of Cycle 2): 4 h. Patients were assessed every 8 weeks, after 2 cycles of treatments.
During the 2-cycle study period, the patients were examined regularly for the following outcomes: • Side effect/DLT; • The pK profiles of the (S,S) and (S,R) diastereomers of TLC388HCl, its 3 metabolites (TLC-U1, TLC-U2 and Topotecan) on day 1 and day 8 of the treatment cycle; and • Anti-cancer efficacy.

CCC1(OC(=O)C(C)ON=C2c3cc([N+](=O)[O-])cc([N+](=O)[O-])c3-c3c2cc([N+](=O)[O-])cc3[N+](=O)[O-])C(=O)OCc2c1cc1n(c2=O)Cc2cc3c(CN(C)C)c(O)ccc3nc2-1.Cl (stereo not drawn) [S,R TLC388HCl]
difference between PK profiles on Day 1 and Day 8: no significant difference | AUC0-t [1]: 1.646 ng·h/mL | Cmax [1]: 3.188 ng/mL | Tmax [1]: 0.606 (0.106) hr | t1/2 [1]: 2.603 (3.591) hr | AUC0-t [2]: 4.728 ng·h/mL | Cmax [2]: 2.743 ng/mL | Tmax [2]: 0.933 (0.936) hr | AUC0-t [3]: 1.564 ng·h/mL | Cmax [3]: 4.073 ng/mL | Tmax [3]: 0.467 (0.209) hr | AUC0-t [4]: 0.821 ng·h/mL | Cmax [4]: 2.196 ng/mL | Tmax [4]: 0.354 (0.209) hr | t1/2 [4]: 0.197 (0.218) hr | AUC0-t [5]: 8.671 ng·h/mL | Cmax [5]: 29.303 ng/mL | Tmax [5]: 0.250 (0.000) hr | t1/2 [5]: 2.828 (4.510) hr | AUC0-t [6]: 3.624 ng·h/mL | Cmax [6]: 12.930 ng/mL | Tmax [6]: 0.396 (0.292) hr | t1/2 [6]: 0.258 (0.271) hr | AUC0-t [7]: 138.61 ng·h/mL | Cmax [7]: 263.58 ng/mL | Tmax [7]: 0.709 (0.083) hr | t1/2 [7]: 3.030 (1.537) hr | AUC0-t [8]: 10.818 ng·h/mL | Cmax [8]: 28.259 ng/mL | Tmax [8]: 0.415 (0.152) hr | t1/2 [8]: 0.460 (0.772) hr | AUC0-t [9]: 14.387 ng·h/mL | Cmax [9]: 43.180 ng/mL | Tmax [9]: 0.403 (0.143) hr | t1/2 [9]: 0.483 (0.334) hr | AUC0-t [10]: 11.285 ng·h/mL | Cmax [10]: 63.194 ng/mL | Tmax [10]: 0.357 (0.148) hr | t1/2 [10]: 0.639 (0.425) hr | AUC0-t [11]: 0.449 ng·h/mL | Cmax [11]: 0.916 ng/mL | Tmax [11]: 0.489 (0.215) hr | t1/2 [11]: 0.087 h | AUC0-t [12]: 0.574 ng·h/mL | Cmax [12]: 1.811 ng/mL | Tmax [12]: 0.350 (0.173) hr | t1/2 [12]: 0.050 (0.008) hr | AUC0-t [13]: 2.190 ng·h/mL | Cmax [13]: 8.287 ng/mL | Tmax [13]: 0.467 (0.209) hr | t1/2 [13]: 0.072 h | AUC0-t [14]: 5.396 ng·h/mL | Cmax [14]: 3.325 ng/mL | Tmax [14]: 2.408 (3.729) hr | t1/2 [14]: 0.133 (0.084) hr | AUC0-t [15]: 4.707 ng·h/mL | Cmax [15]: 15.753 ng/mL | Tmax [15]: 0.328 (0.135) hr | t1/2 [15]: 0.115 (0.064) hr | AUC0-t [16]: 18.892 ng·h/mL | Cmax [16]: 38.413 ng/mL | Tmax [16]: 0.512 (0.240) hr | t1/2 [16]: 0.202 (0.242) hr | AUC0-t [17]: 139.26 ng·h/mL | Cmax [17]: 403.60 ng/mL | Tmax [17]: 0.621 (0.141) hr | t1/2 [17]: 3.329 (2.590) hr | AUC0-t [18]: 34.254 ng·h/mL | Cmax [18]: 76.660 ng/mL | Tmax [18]: 0.303 (0.113) hr | t1/2 [18]: 0.411 (0.676) hr | AUC0-t [19]: 39.251 ng·h/mL | Cmax [19]: 97.288 ng/mL | Tmax [19]: 0.297 (0.104) hr | t1/2 [19]: 0.764 (1.045) hr | AUC0-t [20]: 13.377 ng·h/mL | Cmax [20]: 47.340 ng/mL | Tmax [20]: 0.450 (0.115) hr | t1/2 [20]: 1.416 (1.169) hr | Dose-normalized AUClast [21]: 0.82 ± 1.92 nM*h/(mg/m^2) | Dose-normalized Cmax [21]: 1.63 ± 3.77 nM/(mg/m^2) | Tmax [21]: 0.47 ± 0.30 h | t1/2 [21]: 1.08 ± 1.77 h | half-life: a few minutes

CCC1(OC(=O)C(C)ON=C2c3cc([N+](=O)[O-])cc([N+](=O)[O-])c3-c3c2cc([N+](=O)[O-])cc3[N+](=O)[O-])C(=O)OCc2c1cc1n(c2=O)Cc2cc3c(CN(C)C)c(O)ccc3nc2-1.Cl (stereo not drawn) [S,S TLC388HCl]
difference between PK profiles on Day 1 and Day 8: no significant difference | AUC0-t [1]: 2.190 ng·h/mL | Cmax [1]: 4.492 ng/mL | Tmax [1]: 0.606 (0.106) hr | t1/2 [1]: 2.792 (3.856) hr | AUC0-t [2]: 6.136 ng·h/mL | Cmax [2]: 3.857 ng/mL | Tmax [2]: 0.933 (0.936) hr | AUC0-t [3]: 1.866 ng·h/mL | Cmax [3]: 5.763 ng/mL | Tmax [3]: 0.467 (0.209) hr | AUC0-t [4]: 1.141 ng·h/mL | Cmax [4]: 2.985 ng/mL | Tmax [4]: 0.429 (0.212) hr | t1/2 [4]: 0.074 (0.033) hr | AUC0-t [5]: 14.699 ng·h/mL | Cmax [5]: 51.193 ng/mL | Tmax [5]: 0.250 (0.000) hr | t1/2 [5]: 0.432 (0.260) hr | AUC0-t [6]: 5.227 ng·h/mL | Cmax [6]: 18.623 ng/mL | Tmax [6]: 0.454 (0.276) hr | t1/2 [6]: 0.160 (0.034) hr | AUC0-t [7]: 212.19 ng·h/mL | Cmax [7]: 417.03 ng/mL | Tmax [7]: 0.679 (0.116) hr | t1/2 [7]: 2.221 (0.789) hr | AUC0-t [8]: 17.287 ng·h/mL | Cmax [8]: 47.220 ng/mL | Tmax [8]: 0.415 (0.152) hr | t1/2 [8]: 0.457 (0.812) hr | AUC0-t [9]: 23.967 ng·h/mL | Cmax [9]: 76.840 ng/mL | Tmax [9]: 0.403 (0.143) hr | t1/2 [9]: 0.218 (0.075) hr | AUC0-t [10]: 18.196 ng·h/mL | Cmax [10]: 103.16 ng/mL | Tmax [10]: 0.357 (0.148) hr | t1/2 [10]: 0.546 (0.353) hr | AUC0-t [11]: 0.608 ng·h/mL | Cmax [11]: 1.297 ng/mL | Tmax [11]: 0.489 (0.215) hr | t1/2 [11]: 0.093 h | AUC0-t [12]: 0.852 ng·h/mL | Cmax [12]: 2.902 ng/mL | Tmax [12]: 0.350 (0.173) hr | AUC0-t [13]: 3.152 ng·h/mL | Cmax [13]: 12.160 ng/mL | Tmax [13]: 0.467 (0.209) hr | t1/2 [13]: 0.045 h | AUC0-t [14]: 7.000 ng·h/mL | Cmax [14]: 4.776 ng/mL | Tmax [14]: 2.408 (3.729) hr | t1/2 [14]: 0.195 h | AUC0-t [15]: 7.369 ng·h/mL | Cmax [15]: 24.533 ng/mL | Tmax [15]: 0.328 (0.135) hr | t1/2 [15]: 0.509 (0.731) hr | AUC0-t [16]: 28.454 ng·h/mL | Cmax [16]: 58.903 ng/mL | Tmax [16]: 0.587 (0.167) hr | t1/2 [16]: 0.114 (0.061) hr | AUC0-t [17]: 208.58 ng·h/mL | Cmax [17]: 616.50 ng/mL | Tmax [17]: 0.621 (0.141) hr | t1/2 [17]: 4.009 (1.684) hr | AUC0-t [18]: 58.170 ng·h/mL | Cmax [18]: 127.39 ng/mL | Tmax [18]: 0.303 (0.113) hr | t1/2 [18]: 0.429 (0.687) hr | AUC0-t [19]: 58.594 ng·h/mL | Cmax [19]: 150.12 ng/mL | Tmax [19]: 0.297 (0.104) hr | t1/2 [19]: 0.817 (1.200) hr | AUC0-t [20]: 24.500 ng·h/mL | Cmax [20]: 87.780 ng/mL | Tmax [20]: 0.403 (0.143) hr | t1/2 [20]: 0.971 (0.667) hr | Cmax and AUC compared with S,R-TLC388HCl (at all dose levels): higher than those of S,R-TLC388HCl | Dose-normalized AUClast [21]: 1.22 ± 2.87 nM*h/(mg/m^2) | Dose-normalized Cmax [21]: 2.60 ± 6.02 nM/(mg/m^2) | Tmax [21]: 0.47 ± 0.3 h | t1/2 [21]: 0.75 ± 1.18 h | half-life: a few minutes
